According to the NIST ThermoML archive (doi:10.1016/j.fluid.2015.04.017):
Numbers after ± are expanded uncertainties.

Assay: xn = mol fraction of the nth substance listed
Details: 101 kPa, Liquid; for viscosity: Concentric cylinders viscometry; for mass density: Vibrating tube method

CCOC(=O)C(C)O (stereo not drawn) [DL-ethyl lactate] + Cc1ccccc1
Details | mass density, 308.15 K [kg/m3] | mass density, 313.15 K [kg/m3] | mass density, 318.15 K [kg/m3] | mass density, 323.15 K [kg/m3] | viscosity, 308.15 K [mPa·s] | viscosity, 313.15 K [mPa·s] | viscosity, 318.15 K [mPa·s] | viscosity, 323.15 K [mPa·s]
x1 = 0.1001 | 868.317 ± 0.13 | 863.457 ± 0.13 | 858.58 ± 0.14 | 853.686 ± 0.14 | 0.5513 ± 0.0069 | 0.5218 ± 0.0067 | 0.4943 ± 0.0065 | 0.4712 ± 0.0063
x1 = 0.2001 | 884.843 ± 0.14 | 879.836 ± 0.14 | 874.813 ± 0.14 | 869.771 ± 0.14 | 0.6122 ± 0.0074 | 0.5761 ± 0.0071 | 0.5433 ± 0.0069 | 0.5163 ± 0.0067
x1 = 0.3 | 901.583 ± 0.14 | 896.465 ± 0.14 | 891.323 ± 0.14 | 886.165 ± 0.15 | 0.6876 ± 0.0081 | 0.6439 ± 0.0077 | 0.6042 ± 0.0074 | 0.5718 ± 0.0071
x1 = 0.4 | 918.463 ± 0.15 | 913.246 ± 0.15 | 908.008 ± 0.15 | 902.749 ± 0.15 | 0.7756 ± 0.0089 | 0.7225 ± 0.0084 | 0.6744 ± 0.008 | 0.6343 ± 0.0077
x1 = 0.4998 | 935.187 ± 0.16 | 929.878 ± 0.16 | 924.579 ± 0.16 | 919.234 ± 0.16 | 0.8842 ± 0.0099 | 0.8182 ± 0.0093 | 0.7599 ± 0.0088 | 0.7115 ± 0.0084
x1 = 0.6001 | 952.011 ± 0.17 | 946.664 ± 0.17 | 941.286 ± 0.17 | 935.886 ± 0.17 | 1.017 ± 0.011 | 0.935 ± 0.01 | 0.8633 ± 0.0098 | 0.8038 ± 0.0092
x1 = 0.7 | 968.604 ± 0.18 | 963.183 ± 0.18 | 957.74 ± 0.18 | 952.282 ± 0.18 | 1.176 ± 0.013 | 1.073 ± 0.012 | 0.985 ± 0.011 | 0.912 ± 0.01
x1 = 0.7999 | 985.109 ± 0.2 | 979.648 ± 0.2 | 974.163 ± 0.2 | 968.653 ± 0.2 | 1.367 ± 0.015 | 1.239 ± 0.013 | 1.13 ± 0.012 | 1.038 ± 0.011
x1 = 0.9 | 1001.53 ± 0.21 | 996.054 ± 0.21 | 990.49 ± 0.21 | 984.965 ± 0.21 | 1.592 ± 0.017 | 1.432 ± 0.015 | 1.296 ± 0.014 | 1.186 ± 0.013
x1 = 1 | 1017.42 ± 0.24 | 1011.9 ± 0.24 | 1006.36 ± 0.23 | 1000.79 ± 0.23 | 1.858 ± 0.02 | 1.658 ± 0.018 | 1.491 ± 0.016 | 1.349 ± 0.015
